Results reported in PMC4534154 (Food Science & Nutrition, 2015).
Entries after “also recorded” stand apart in the source; their conditions may differ. Values belong to the compound of their own block, whether it stands above or below them. Where a SMILES comes first, the peptide text is derived from it.

Columns and labels:
trypsin = target: T1, trypsin (Bos taurus, UniProt P00760); assay: Simulated intestinal fluid (SIF, trypsin only) digestion of Ara h 1 peptides; type: in vitro ADME, bovine; conditions: SIF containing only trypsin, 200 μg peptide in 1 mL, 37°C, samples at 1, 2, 4, 16 h, LC-MS peak integration; for SIF (trypsin) cleavage, formation of 1073.55 amu cleavage ion, in words: Fig. 2D; for peptide cleaved at the K287 site in SIF (formation of 2227.05 amu ion as percentage of sum of parental and fragment ions): Fig. 2C
T1 construct: purchased Sigma; host or cells: bovine pancreas (tissue-derived)
T1 sequence (P00760 24-246): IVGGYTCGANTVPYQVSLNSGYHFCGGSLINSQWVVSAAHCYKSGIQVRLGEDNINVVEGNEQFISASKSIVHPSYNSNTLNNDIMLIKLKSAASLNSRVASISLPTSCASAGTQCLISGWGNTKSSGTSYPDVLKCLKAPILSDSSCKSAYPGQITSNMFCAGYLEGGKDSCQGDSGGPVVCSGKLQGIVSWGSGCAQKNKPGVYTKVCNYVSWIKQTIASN
Description: Pepsin from porcine gastric mucosa and trypsin from bovine pancreas were purchased from Sigma. Sequencing grade-modified trypsin was purchased from Promega. Water was obtained using a Synergy Ultrapure water system (Millipore). Modified and unmodified Ara h 1 peptides were synthesized (at least 95% pure) and purchased from New England Peptide. Serum samples from five peanut allergic patients were purchased from PlasmaLab International (Everett, WA).
Simulated gastric fluid (SGF) containing pepsin and simulated intestinal fluid (SIF) containing trypsin were used as described previously (Mattison et al. [2014b]). Synthetic peptides were resuspended in water just prior to use at a concentration of 1 mg/mL. Peptides (200 μg) were digested with SGF or SIF in 1 mL reaction volume for 1, 2, 4, or 16 h at 37°C. Samples (100 μL) were removed at the indicated time points, 5% formic acid was added, and samples were frozen at −80°C prior to analysis by mass spectrometry.
Analysis of trypsin/pepsin digestions: trypsin or pepsin digested Ara h 1 peptides were analyzed via liquid chromatography with tandem mass spectrometry (LC/MS/MS), using an Agilent 1200 LC system, an Agilent Chip Cube interface, and an Agilent 6520 Q-TOF tandem mass spectrometer (Agilent Technologies, Santa Clara, CA) as described in Mattison et al. (Mattison et al. [2014a]). One microliter sample aliquots were transferred to an enrichment column via capillary pump operating at a flow of 4 μL/min. The Nano pump was operated at a flow rate of 600 nL/min. An initial gradient (Solvent A-100% H2O, 0.1% Formic Acid; Solvent B- 90% ACN, 10% H2O and 0.1% Formic Acid) of 97% A was changed to 10% […] at 2 min, 70% at 15 min, 100% at 20 min, and back to 97% at 25 min. A postrun time of 5 min was employed for column equilibration. An initial MS scan was performed from m/z 300 to 1600 and up to six multiply charged ions were selected for MS/MS analysis. The raw MS/MS data files were extracted, sequenced, and searched against a custom database containing the Ara h 1 sequence using Spectrum Mill software (Agilent Technologies, Santa Clara, CA). For relative quantification, samples were run in MS-only mode and chromatographic peak areas were integrated into selected ions representative of the peptide cleavage products, resulting from the protease digest.
We evaluated the digestion of the modified and unmodified peptides using SIF containing only trypsin to mimic intestinal digestion conditions. […] To quantify the results, we integrated the relative peak areas of the 2227.05 and 1073.55 amu ions and undigested parental ions, and plotted the generation of the peptide cleavage products as a percentage of the sum of the parental and fragment ion values over time (Fig.2C and D). […]

[1] = tested on: Pepsin from porcine gastric mucosa; assay: Simulated gastric fluid (SGF) containing pepsin; conditions: 37°C, up to 16 h
[2] = tested on: trypsin from bovine pancreas; assay: simulated intestinal fluid (SIF) containing trypsin; conditions: 37°C, up to 16 h

SIF (trypsin) cleavage, formation of 1073.55 amu cleavage ion, in words (trypsin): prevented trypsin cleavage
Compound: CC[C@H](C)[C@H](N)C(=O)N[C@@H](Cc1ccccc1)C(=O)N[C@@H](CC(C)C)C(=O)N[C@@H](C)C(=O)NCC(=O)N[C@@H](CC(=O)O)C(=O)N[C@@H](CCCCNCC(=O)O)C(=O)N[C@@H](CC(=O)O)C(=O)N[C@@H](CC(N)=O)C(=O)N[C@H](C(=O)N[C@H](C(=O)N[C@@H](CC(=O)O)C(=O)N[C@@H](CCC(N)=O)C(=O)N[C@H](C(=O)N[C@@H](CCC(=O)O)C(=O)N[C@@H](CCCCN)C(=O)O)[C@@H](C)CC)[C@@H](C)CC)C(C)C [IFLAG-CML]

SIF (trypsin) cleavage, formation of 1073.55 amu cleavage ion, in words (trypsin): very limited SIF proteolysis
Compound: CC[C@H](C)[C@H](N)C(=O)N[C@@H](Cc1ccccc1)C(=O)N[C@@H](CC(C)C)C(=O)N[C@@H](C)C(=O)NCC(=O)N[C@@H](CC(=O)O)C(=O)N[C@@H](CCCCN)C(=O)N[C@@H](CC(=O)O)C(=O)N[C@@H](CC(N)=O)C(=O)N[C@H](C(=O)N[C@H](C(=O)N[C@@H](CC(=O)O)C(=O)N[C@@H](CCC(N)=O)C(=O)N[C@H](C(=O)N[C@@H](CCC(=O)O)C(=O)N[C@@H](CCCCN)C(=O)O)[C@@H](C)CC)[C@@H](C)CC)C(C)C [IFLAG] (H-IFLAGDKDNVIDQIEK-OH)

Compound: IFLAGDK-CML-DNVIDQIEK
fragment found [1]: IFLAGDKDNVIDQ, major; also recorded: AGDKDNVIDQ, major; also recorded: IFLAGDKD, major | not cleaved [2]: the CML modification prevented trypsin cleavage of the peptide

cleaved bond [2]: K547-D548
Compound: IFLAGDKDNVIDQIEK
fragment found [1]: IFLAGDKDNVIDQ, major; also recorded: AGDKDNVIDQ, major; also recorded: IFLAGDKD, major

Compound: VAK-CML-ISMPVNTPGQFEDFFPASSR
fragment found [1]: VAKISM, major; also recorded: VAKISMPVNTPGQF, major | not cleaved [2]: less than 5% of the CML-modified VAK peptide was cleaved (16 h)

cleaved bond [2]: K287-I288
Compound: VAKISMPVNTPGQFEDFFPASSR
fragment found [1]: VAKISMPVNTPGQF, major; also recorded: VAKISM, major

peptide cleaved at the K287 site in SIF (formation of 2227.05 amu ion as percentage of sum of parental and fragment ions) (trypsin; listed as CML-modified VAK): less than 5%
Compound: VAKISMPVNTPGQFEDFFPASSR [VAK-CML, synthetic Ara h 1 peptide, residues 285–307, with CML modification at lysine 287 (K287)]

peptide cleaved at the K287 site in SIF (formation of 2227.05 amu ion as percentage of sum of parental and fragment ions) (trypsin): about 50%
Compound: VAKISMPVNTPGQFEDFFPASSR [synthetic Ara h 1 peptide, residues 285–307, unmodified]
